Legend:
[1] = tested on: α-arabinosidase; test: Enzymatic hydrolysis of the muscat glycosidic extract by α-arabinosidase (GC); assay type: biochemical
Protocol: (§1) 40 μl of glycosidic extract and 60 μl of a solution of Glc-pNP (internal standard) at a concentration of 50 mg/1 in ethyl acetate are introduced into a suitable flask. The mixture is taken to dryness at 40° C. with a stream of nitrogen. 40 μl of the silylating reagent (Tri-sil, Pierce, Rockford, Ill., U.S.A.) are then introduced; the flask is sealed and maintained at 40° C. for 20 minutes. After rapid cooling, the silylated sample is then ready for analysis by GC.
(§2) The apparatus used consists of a Series 30C gas chromatograph, an "on-column" injector (injected volume 0.5 μl) and a flame ionization detector (Girdel, France). A thin film (0.20 μm) of an OV-1 (Girdel) apolar silicone phase is grafted onto the inner wall of the capillary column ([…].). The oven temperature is programmed from 125 to 305° C. at the rate of 5° C./minute, then maintained at 305° C. for 15 minutes. Finally, the detector temperature is set at 300° C. and hydrogen is used as the carrier gas at a pressure of 120 kPa.
(§3) The experimental protocols for the enzymatic hydrolysis on the glycosidic extract are collated in Table 3. […]

[2] = tested on: α-rhamnosidase; test: Enzymatic hydrolysis of the muscat glycosidic extract by α-rhamnosidase (GC); assay type: biochemical; conditions: 0.15 nkat, 40° C., 16 h
Protocol: as §1, §2, §3

[3] = tested on: β-glucosidase; test: Second stage: consecutive action of β-glucosidase on the pre-incubated glycosidic extract (GC); assay type: biochemical, sweet almond; conditions: 0.15 nkat, 40°, 16 h
Protocol: as §1, §2, §3

[4] = target: T1, β-glucosidase of Klerzyme 200 (Aspergillus niger, UniProt A2RAL4); test: Hydrolysis of Hemicellulase-pretreated glycosidic extract by Klerzyme 200 (GC); assay type: biochemical; conditions: glycosidic extract pretreated with Hemicellulase
T1 sequence (A2RAL4 20-860): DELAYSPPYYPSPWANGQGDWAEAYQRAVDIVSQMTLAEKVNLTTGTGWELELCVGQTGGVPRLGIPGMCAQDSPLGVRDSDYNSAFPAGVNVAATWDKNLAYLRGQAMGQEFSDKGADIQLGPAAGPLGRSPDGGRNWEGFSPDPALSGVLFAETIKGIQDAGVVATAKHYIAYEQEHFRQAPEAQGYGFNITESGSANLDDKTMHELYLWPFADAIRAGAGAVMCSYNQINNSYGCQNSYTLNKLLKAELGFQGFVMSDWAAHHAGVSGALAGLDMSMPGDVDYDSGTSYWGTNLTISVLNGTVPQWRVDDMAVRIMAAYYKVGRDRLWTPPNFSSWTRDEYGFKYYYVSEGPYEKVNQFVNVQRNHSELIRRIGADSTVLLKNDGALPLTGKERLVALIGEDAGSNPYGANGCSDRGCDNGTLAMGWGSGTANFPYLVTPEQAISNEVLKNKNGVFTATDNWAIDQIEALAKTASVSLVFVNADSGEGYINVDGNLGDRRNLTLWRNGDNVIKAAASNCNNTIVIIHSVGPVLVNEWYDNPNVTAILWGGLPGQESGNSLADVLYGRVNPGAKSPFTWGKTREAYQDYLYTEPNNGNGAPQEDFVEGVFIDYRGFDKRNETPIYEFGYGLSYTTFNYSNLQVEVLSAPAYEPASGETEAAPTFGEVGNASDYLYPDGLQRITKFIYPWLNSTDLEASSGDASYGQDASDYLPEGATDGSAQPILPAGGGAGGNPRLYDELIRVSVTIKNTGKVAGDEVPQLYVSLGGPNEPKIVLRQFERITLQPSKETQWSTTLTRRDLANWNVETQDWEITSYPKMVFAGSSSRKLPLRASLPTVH
Source text: In another aspect, the action of the β-apiosidase on a glycosidic extract (FIG. 11A) was studied after the action of the Hemicellulase preparation (containing α-rhamnosidase, α-arabinosidase and β-glucosidase activities) on this extract. The Hemicellulase preparation eliminated the rhamnosyl- and arabinosylglucosides (FIG. 11B). Afterwards, the apiosylglucosides remaining were subjected to the hydrolytic action of the β-apiosidase and β-glucosidase of Klerzyme 200 (FIG. 11C). […] This is attributable to the weak affinity of the β-glucosidase of Klerzyme 200, vis-a-vis the linalyl glucosides.

[5] = Vinification of Muscat of Frontignan must with Klerzyme 200, free and bound aroma components by GC
Protocol: After storing for 1.5 months at 20°-22° C., the free and bound aroma component fractions of each sample were extracted on an Amberlite XAD-2 column in 50 ml aliquots, and analyzed via GC.
In another aspect, the action of an enzyme preparation (Klerzyme 200) containing β-apiosidase activity, in addition to α-rhamnosidase, α-arabinosidase and β-glucosidase activity, was studied during the fermentation of dry wines from the Muscat of Frontignan must. Klerzyme 200 (containing (per liter must) 2,770 nkat β-glucosidase, 704 nkat β-apiosidase, 276 nkat α-arabinosidase and 35 nkat α-rhamnosidase) and 10 g/hl of a wine yeast (Saccharomyces cerevisiae, type K1) were added to the must.

[6] = tested on: β-glucosidase; conditions: cited from earlier work

In the case of `C=CC(C)(CCC=C(C)C)O[C@@H]1O[C@H](CO)[C@@H](O)[C@H](O)[C@H]1O` (stereo partly drawn) [Glc-Lin, linalyl β-D-glucopyranoside], the “Terpene monoglucosides liberated by α-arabinosidase from a glycosidic extract” value ([1]; 0.15 nkat, 40° C., 16 h) is reported as 10%, the “% of monoglucosides (liberated by the two enzymes together)” value ([1]; sum of α-arabinosidase and α-rhamnosidase) is reported as 19% and the “Terpene monoglucosides liberated by α-rhamnosidase from a glycosidic extract” value [2] is reported as 9%. The “hydrolysis by consecutive action of β-glucosidase (second stage, GC)” value ([3]; listed as linalyl glucoside) was “incomplete hydrolysis”, the “hydrolysis by consecutive action of β-glucosidase (second stage, GC)” value ([3]; listed as linanyl monoglucoside) was “reduction” and the “hydrolysis by the β-glucosidase of Klerzyme 200” value [4] was “not hydrolyzed”. The “hydrolysis by Klerzyme 200 during vinification of dry wine” value [5] was “not hydrolyzed” and the “affinity of the sweet almond β-glucosidase for the substrate” value [6] was “low affinity”.
